Test results: patent EP4818152A1, “METHOD FOR PREPARING L-SERINE HYDROCHLORIDE AND USE THEREOF” (Astrogen, Inc., priority 2023, dated 2025)
Read-outs that look alike come from different tables or passages of the source.

Legend:
[1] = Mouse PK experiment (serum levels by LC-MS/MS)
Experimental: (§1) -6, -4, -2, and 0 hours before drug administration and 0.25, 0.5, 1, 3, 6, 9, and 12 hours after drug administration, the experimental mice were placed in a restrainer, a 2 mm incision was made at the tip of the tail, and about 40-50 µL of blood was collected into a heparin capillary tube while massaging the tail. […] Blood samples were transferred to 2 mL tubes and centrifuged at 2000× g for 10 minutes to separate the serum, which was then transferred to new tubes at about 20-25 µL per sample. […] The internal standard D, L-serine-2,3,3-d3 stock solution was prepared at a concentration of 60 µg/mL for preparing a calibration curve and at 2 µg/mL for spiking into samples. To prepare the reagents required for creating the calibration curve, 10 µL of the diluted stock solution and 10 µL of the internal standard solution (D, L-serine-2,3,3-d3, 60 µg/mL) were spiked into 980 µL of a solvent with a ratio of acetonitrile/water/trifluoroacetic acid (v/v/v, 96/5/0.5). […] The mixed solution was centrifuged at 16,000 g for 10 minutes, and the supernatant was separated and injected into LC-MS/MS at a volume of 5 µL. The ultra-high-performance liquid chromatography system consisted of a pump (LC-40D X3), an autosampler (SIL-40CX3), a column oven (CTO-40C), and a system controller (SCL-40) from Shimadzu (Duisburg, Germany), and the mass spectrometer used was a QTRQP LC-MS/MS 6500+ from SCIEX (Framingham, MA, USA). The column used was a CROWNPAK CR-I (+) [3.0 x 150 mm, 5 micron] from DAICEL (Osaka, Tokyo), and the column oven was set to 30°C. Acetonitrile/water/trifluoroacetic acid (v/v/v, 96/5/0.5) was used as the mobile phase, and the elution was performed under isocratic conditions. Mass spectrometry detection was performed under multiple reaction monitoring (MRM) conditions in ESI+ mode. MS/MS parameters were ion spray voltage, 5500 V; temperature 500°C; curtain gas, 30 psi; ion source gas (GS1), 50 psi, ion source gas (GS2), 50 psi. The declustering potential (DP), entrance potential (EP), collision energy (CE), and collision cell exit potential (CXP) values under MRM conditions were optimized in manual tuning mode using a syringe infusion pump, and mass spectrometric analysis was performed. Data acquisition and processing were performed using AB SCIEX Analyst software.

[2] = Storage stability in aqueous solution (discoloration, precipitation); type: physicochemical; conditions: stored in an aqueous solution at room temperature for one month
[3] = system: valproic acid (VPA)-induced autism model mice; experiment: Three-chamber test of social interaction in VPA-induced autism model mice; type: in vivo; conditions: oral, 14 days from day 21 after birth; 3-chamber test 35 days after birth; versus vehicle-treated VPA mice
Experimental: In order to perform a behavioral experiment on valproic acid (VPA)-induced autism model mice using L-serine hydrochloride prepared in Example 3, 600 mg/kg of VPA dissolved in 0.9% NaCl saline was administered subcutaneously to pregnant dams to obtain 14 VPA-induced autism model mice. Meanwhile, 8 pups born to the dams that were not administered VPA were used as a control group. […] The drug was orally administered at a dose of 10 mL/kg per day based on the individual's body weight, which is equivalent, on a molar basis, to administering 400 mg/kg of L-serine hydrochloride to humans.
Thirty-five days after birth, the mice's social interaction abilities were tested using a three-chamber test. Social novelty was evaluated based on the interaction time during an initial encounter with a novel mouse compared with a re-encounter with a familiar mouse. Sociability reflects the degree of social interaction between a mouse and another mouse, and was measured by evaluating the interaction time that the mouse spent interacting with another mouse located in one side of an empty chmber.

in vivo = conditions: mouse
Experimental: as §1

[4] = mouse, in vivo
Experimental: as §1

| Structure (SMILES) | Cl/F ([1]; mouse PK, serum) | AUC(0-t) ([1]; mouse, in vivo) [µg·h/mL] | Cmax ([1]; mouse, in vivo) [µg/mL] | Tmax ([1]; mouse, in vivo) [min] | half-life ([1]; mouse, in vivo) [min] | discoloration or precipitation [2] | sociability [3] | social novelty [3] | AUC(0-t) (in vivo) [µg·h/mL] | Cmax (in vivo) [µg/mL] | Tmax (in vivo) [min] | half-life (in vivo) [min] | Cl/F [4] |
| --- | --- | --- | --- | --- | --- | --- | --- | --- | --- | --- | --- | --- | --- |
| Cl.N[C@@H](CO)C(=O)O [L-Serine Hydrochloride (Example 3), L-serine hydrochloride] | 3.77±0.94 (mg/kg)/(µg/mL)/h | 141 ± 37.4 | 77.7 ± 8.49 | 37.2 | 108 ± 16.2 | no discoloration or precipitation occurred | statistically significant improvements | statistically significant improvements | – | – | – | – | – |
| N[C@@H](CO)C(=O)O [L-Serine, L-serine] | – | – | – | – | – | – | – | – | 81.5 ± 22.5 | 67.5 ± 25.9 | 15 | 72.6 ± 28.8 | 4.92±1.20 (mg/kg)/(µg/mL)/h |
